Assay results taken from paper PMC6381099, “Hydroxyoleoside-type seco-iridoids from Symplocos cochinchinensis and their insulin mimetic activity” (Scientific Reports, 2019).

Target: T1, PTP1B (protein tyrosine phosphatase 1B) (Homo sapiens, UniProt P18031)
T1 construct: gene PTPN1
T1 sequence (P18031 1-435): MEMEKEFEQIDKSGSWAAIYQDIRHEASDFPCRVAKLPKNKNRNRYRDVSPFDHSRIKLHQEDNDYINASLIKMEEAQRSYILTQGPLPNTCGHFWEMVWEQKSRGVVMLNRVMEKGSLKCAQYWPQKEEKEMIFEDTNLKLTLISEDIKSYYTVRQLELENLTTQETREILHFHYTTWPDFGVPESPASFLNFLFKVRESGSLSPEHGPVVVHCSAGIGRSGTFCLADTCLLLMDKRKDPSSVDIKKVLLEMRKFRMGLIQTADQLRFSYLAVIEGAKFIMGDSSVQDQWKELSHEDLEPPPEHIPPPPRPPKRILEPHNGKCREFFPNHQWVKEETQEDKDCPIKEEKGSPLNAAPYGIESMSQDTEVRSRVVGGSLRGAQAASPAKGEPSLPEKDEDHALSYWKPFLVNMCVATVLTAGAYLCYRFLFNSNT
Experiment: p-NPP hydrolysis assay with recombinant human PTP1B; Lineweaver-Burk kinetics
Assay type: biochemical

- IC50: 19.5 ± 0.76 µM
SMILES: O=C(O)C[C@@H]1C(C(=O)O)=CO[C@@H](O[C@@H]2O[C@H](CO)[C@@H](O)[C@H](O)[C@H]2O)C1=CCOC(=O)/C=C/c1ccc(O)cc1 [compound 3, Symplocochinside C]
